This passage reports Ki results from article PMC6230509 (Neuropharmacology, 2018).

The target of one assay is 5-HT2B (Homo sapiens, UniProt P41595). The experiment in a line: NIMH PDSP radioligand competition binding, 5-HT2B.
Another assay addresses 5-HT6 (Homo sapiens, UniProt P50406). The experiment in a line: NIMH PDSP radioligand competition binding, 5-HT6.
The target of a further assay is T1, α2C (Homo sapiens, UniProt P18825).
T1 sequence (P18825 1-462): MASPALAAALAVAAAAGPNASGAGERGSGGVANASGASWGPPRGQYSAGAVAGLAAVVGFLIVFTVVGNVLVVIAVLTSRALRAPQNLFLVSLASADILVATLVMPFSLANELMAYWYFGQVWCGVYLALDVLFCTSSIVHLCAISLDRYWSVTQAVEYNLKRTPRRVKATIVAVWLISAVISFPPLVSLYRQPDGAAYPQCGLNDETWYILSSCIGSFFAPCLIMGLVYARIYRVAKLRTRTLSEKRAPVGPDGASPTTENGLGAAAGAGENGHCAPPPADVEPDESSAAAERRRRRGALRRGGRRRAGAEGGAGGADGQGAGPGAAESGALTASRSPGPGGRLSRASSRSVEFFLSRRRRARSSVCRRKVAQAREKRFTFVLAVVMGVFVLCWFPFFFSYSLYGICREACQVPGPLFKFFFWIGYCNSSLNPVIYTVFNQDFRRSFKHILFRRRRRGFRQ
The experiment in a line: NIMH PDSP radioligand competition binding, α2C. In general terms: Displacement assays read how much labelled ligand stays bound in the presence of the test substance.

A further assay addresses D1 (Homo sapiens, UniProt P21728). The experiment in a line: NIMH PDSP radioligand competition binding, D1.
Another assay has as its target D2 (Homo sapiens, UniProt P14416). The experiment in a line: NIMH PDSP radioligand competition binding, D2.
A further assay concerns the target D3 (Homo sapiens, UniProt P35462). The assay is described as follows: NIMH PDSP radioligand competition binding, D3.
The mark [1] stands for this setting: Binding Affinity (Ki, nM), [3H]SCH23390, cloned human receptor.

D3, sequence (P35462 whole entry): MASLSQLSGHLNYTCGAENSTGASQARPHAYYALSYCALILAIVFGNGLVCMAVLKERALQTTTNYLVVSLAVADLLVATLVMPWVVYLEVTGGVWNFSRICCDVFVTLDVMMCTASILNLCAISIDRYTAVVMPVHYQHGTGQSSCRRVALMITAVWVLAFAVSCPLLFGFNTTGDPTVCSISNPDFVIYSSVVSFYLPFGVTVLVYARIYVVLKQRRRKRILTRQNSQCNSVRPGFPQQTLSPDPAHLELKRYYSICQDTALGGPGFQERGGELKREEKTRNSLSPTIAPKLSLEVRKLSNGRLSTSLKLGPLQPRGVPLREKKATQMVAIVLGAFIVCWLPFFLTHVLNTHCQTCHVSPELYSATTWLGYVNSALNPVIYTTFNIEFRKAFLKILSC
5-HT2B, sequence (P41595 whole entry): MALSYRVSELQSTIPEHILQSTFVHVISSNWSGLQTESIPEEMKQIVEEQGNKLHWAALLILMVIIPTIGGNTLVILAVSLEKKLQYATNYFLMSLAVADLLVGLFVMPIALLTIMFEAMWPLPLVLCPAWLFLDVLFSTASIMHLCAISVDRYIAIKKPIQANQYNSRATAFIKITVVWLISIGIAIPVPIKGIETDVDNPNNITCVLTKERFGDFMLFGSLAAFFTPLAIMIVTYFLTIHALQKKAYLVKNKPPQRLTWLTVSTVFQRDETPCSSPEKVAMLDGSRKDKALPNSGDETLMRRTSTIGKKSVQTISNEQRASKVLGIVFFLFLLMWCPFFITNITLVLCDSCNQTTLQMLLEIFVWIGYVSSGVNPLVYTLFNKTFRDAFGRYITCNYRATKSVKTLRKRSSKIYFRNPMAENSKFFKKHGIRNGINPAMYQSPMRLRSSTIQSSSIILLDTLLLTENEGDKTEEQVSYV
D2, sequence (P14416 whole entry): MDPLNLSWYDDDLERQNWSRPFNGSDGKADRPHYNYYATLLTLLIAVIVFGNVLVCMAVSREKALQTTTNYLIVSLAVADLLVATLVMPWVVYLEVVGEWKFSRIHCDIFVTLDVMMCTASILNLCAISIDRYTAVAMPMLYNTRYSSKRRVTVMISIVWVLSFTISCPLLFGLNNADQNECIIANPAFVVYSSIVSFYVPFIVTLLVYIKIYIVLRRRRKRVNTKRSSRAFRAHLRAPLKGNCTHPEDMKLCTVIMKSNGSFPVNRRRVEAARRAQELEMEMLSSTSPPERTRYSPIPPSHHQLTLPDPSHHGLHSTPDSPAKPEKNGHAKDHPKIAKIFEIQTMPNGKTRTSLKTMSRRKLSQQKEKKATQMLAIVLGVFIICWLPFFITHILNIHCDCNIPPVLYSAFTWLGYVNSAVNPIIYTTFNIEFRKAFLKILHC
D1, sequence (P21728 whole entry): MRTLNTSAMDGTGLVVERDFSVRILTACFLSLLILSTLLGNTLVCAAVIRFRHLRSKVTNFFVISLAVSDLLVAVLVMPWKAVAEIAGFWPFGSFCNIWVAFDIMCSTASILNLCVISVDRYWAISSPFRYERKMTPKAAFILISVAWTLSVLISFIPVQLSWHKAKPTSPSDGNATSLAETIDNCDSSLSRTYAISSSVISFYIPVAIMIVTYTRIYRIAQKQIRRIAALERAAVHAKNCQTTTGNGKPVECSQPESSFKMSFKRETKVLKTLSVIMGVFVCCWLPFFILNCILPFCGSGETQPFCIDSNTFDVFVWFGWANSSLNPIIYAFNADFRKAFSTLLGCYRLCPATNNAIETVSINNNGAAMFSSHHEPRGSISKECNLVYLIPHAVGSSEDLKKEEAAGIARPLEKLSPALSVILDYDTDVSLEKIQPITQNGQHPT
5-HT6, sequence (P50406 whole entry): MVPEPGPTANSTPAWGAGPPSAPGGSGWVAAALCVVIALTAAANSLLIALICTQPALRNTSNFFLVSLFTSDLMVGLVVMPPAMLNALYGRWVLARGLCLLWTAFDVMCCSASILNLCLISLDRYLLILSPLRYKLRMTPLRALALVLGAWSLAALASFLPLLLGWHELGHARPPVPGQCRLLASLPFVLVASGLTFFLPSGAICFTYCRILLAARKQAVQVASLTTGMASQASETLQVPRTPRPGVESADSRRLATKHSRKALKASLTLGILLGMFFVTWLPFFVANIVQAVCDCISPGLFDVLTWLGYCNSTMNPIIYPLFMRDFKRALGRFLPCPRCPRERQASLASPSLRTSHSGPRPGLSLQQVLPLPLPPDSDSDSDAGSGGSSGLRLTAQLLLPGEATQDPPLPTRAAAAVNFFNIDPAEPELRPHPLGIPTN

For orientation: Ki means a dissociation constant, usually derived from enzyme kinetics or from competition with a known ligand. High values mean weaker binding, low ones tighter binding. Take `C=CCN(CC=C)CCc1c(C)[nH]c2ccc(OC)cc12` [5-MeO-2-Me-DALT, 5-methoxy-2-methyl-N,N-diallyltryptamine]: the inhibitory constant (Ki) is 241 nM at 5-HT2B; 206 nM on 5-HT6; 888 nM on α2C; above 10000 nM at D1 (setting [1]); above 10000 nM on D2; 2400 nM at D3.

Turning to `C=CCN(CC=C)CCc1c[nH]c2c(CC)cccc12` [7-Et-DALT, 7-ethyl-N,N-diallyltryptamine], the Ki at 5-HT2B was 65 nM; at 5-HT6 it was above 10000 nM; on α2C, 682 nM; at D1 (setting [1]) it was above 10000 nM; at D2, above 10000 nM; at D3, 1080 nM.

Turning to `C=CCN(CC=C)CCc1c[nH]c2cccc(OC(C)=O)c12` [4-AcO-DALT, 4-acetoxy-N,N-diallyltryptamine], the Ki at 5-HT2B is 63 nM; at 5-HT6, 1790 nM; at α2C, 748 nM; at D1 (setting [1]) it was above 10000 nM; on D2, above 10000 nM; on D3 it was above 10000 nM.

Consider `C=CCN(CC=C)CCc1c(C)[nH]c2ccc(F)cc12` [5-F-2-Me-DALT, 5-fluoro-2-methyl-N,N-diallyltryptamine], for which the inhibition constant Ki is 17 nM on 5-HT2B; 168 nM at 5-HT6; 184 nM at α2C; above 10000 nM on D1 (setting [1]); 4420 nM on D2; 414 nM at D3.

With `C=CCN(CC=C)CCc1c[nH]c2cccc(O)c12` [4-HO-DALT, 4-hydroxy-N,N-diallyltryptamine], the Ki at 5-HT2B is 2590 nM; at 5-HT6, 213 nM; at α2C, above 10000 nM; on D1 (setting [1]), above 10000 nM; on D2 it was above 10000 nM; at D3, 1570 nM.

Consider `C=CCN(CC=C)CCc1c(-c2ccccc2)[nH]c2ccccc12` [2-Ph-DALT, 2-phenyl-N,N-diallyltryptamine], for which the inhibition constant Ki was 192 nM at 5-HT2B; 68 nM on 5-HT6; 159 nM at α2C; 2790 nM on D1 (setting [1]); below 10000 nM on D1 (Ki value, bound stated); 388 nM at D2. At D3, this molecule registered a Ki of 342 nM.
